For this experiment, the target named is T1, human cannabinoid CB2 receptor (Homo sapiens, UniProt P34972).
T1 construct: expressed in transfected cells; host or cells: Saccharomyces cerevisiae strain MMY23
Description: Cannabinoid CB2 receptor agonist activity, yeast reporter assay (FDGlu fluorescence).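 On Emax: 100% equals maximal response of reference agonist HU210.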 The experiment is classed as cell-based. The note with it: for Emax: read-out: efficacy value (Emax) at the cloned human cannabinoid CB2 receptor. (A reporter such as luciferase makes a cellular process visible.)

In general, EC50 refers to the concentration at which the effect is half-maximal. The term Emax denotes the size of the effect at its maximum, as opposed to the concentration needed.

T1 sequence (P34972 whole entry): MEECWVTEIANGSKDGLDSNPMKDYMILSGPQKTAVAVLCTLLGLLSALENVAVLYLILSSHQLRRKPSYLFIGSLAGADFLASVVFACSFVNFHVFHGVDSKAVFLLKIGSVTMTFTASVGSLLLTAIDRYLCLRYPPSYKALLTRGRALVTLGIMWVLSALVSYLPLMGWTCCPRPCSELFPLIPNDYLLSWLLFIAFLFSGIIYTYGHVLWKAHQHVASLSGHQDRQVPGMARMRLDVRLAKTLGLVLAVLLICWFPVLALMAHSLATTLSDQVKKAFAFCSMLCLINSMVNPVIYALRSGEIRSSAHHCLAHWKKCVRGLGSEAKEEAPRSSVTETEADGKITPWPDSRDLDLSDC

Regarding `CC(C)c1cc(Nc2ccc(Br)c(Br)c2)ncc1C(=O)NCC1CCOCC1` [Example 296, 6-(3,4-Dibromo-phenylamino)-4-isopropyl-N-(tetrahydropyran-4-ylmethyl)-nicotinamide], the EC50 was under 300 nM and the Emax is over 50%.
The corresponding values for `CC(C)c1nc(Nc2ccc(Cl)cc2Cl)ccc1C(=O)NCC1CCOCC1` [Example 214, 6-(2,4-Dichloro-phenylamino)-N-(tetrahydro-pyran-4-ylmethyl)-2-isopropyl-nicotinamide] are under 300 nM and over 50%.
`CC(C)c1cc(Nc2cccc(Cl)c2)ncc1C(=O)NCC1CC1` [Example 51, 6-(3-Chloro-phenylamino)-N-cyclopropylmethyl-4-isopropyl-nicotinamide]: the 50% effective concentration (EC50) was under 300 nM and the Emax is over 50%.
The corresponding values for `O=C(NCC1CC1)c1cnc(Nc2cccc(F)c2)cc1C(F)(F)F` [Example 132, N-Cyclopropylmethyl-6-(3-fluoro-phenylamino)-4-tri-fluoromethyl-nicotinamide] are under 300 nM and over 50%.
Regarding `O=C(NCC1CCOCC1)c1cnc(Nc2ccc(Cl)cc2F)cc1C(F)(F)F` [Example 162, N-(Tetrahydropyran-4-yl-methyl)-6-(2-fluoro-4-chloro-phenylamino)-4-trifluoro-methyl-nicotinamide], the EC50 was under 300 nM and the maximal response (Emax) is over 50%.
The corresponding values for `O=C(NCC1CCC1)c1cnc(Nc2cccc(Cl)c2)cc1C(F)(F)F` [Example 112, N-Cyclobutylmethyl-6-(3-chlorophenylamino)-4-tri-fluoromethyl-nicotinamide] are under 300 nM and over 50%.
In the case of `CC(C)c1nc(Nc2ccc(Cl)cc2Cl)ccc1C(=O)NCC1CCCC1` [Example 213, 6-(2,4-Dichloro-phenylamino)-N-cyclopentylmethyl-2-isopropyl-nicotinamide], the EC50 is under 300 nM and the Emax is over 50%.
As to `CC(C)c1cc(Nc2ccc(OC(F)(F)F)c(Cl)c2)ncc1C(=O)NCC1CCOCC1` [Example 78, 6-(3-Chloro-4-trifluoromethoxy-phenylamino)-4-isopropyl-N-(tetrahydro-pyran-4-ylmethyl)-nicotinamide], the EC50 is under 300 nM and the Emax was over 50%.
The corresponding values for `O=C(NCC1CCC1)c1cnc(Nc2ccc(Cl)cc2F)cc1C(F)(F)F` [Example 160, N-Cyclobutylmethyl-6-(2-fluoro-4-chloro-phenyl-amino)-4-trifluoromethyl-nicotinamide] are under 300 nM and over 50%.
The corresponding values for `O=C(NCC1CCCCC1)c1cnc(Nc2ccccc2)cc1C(F)(F)F` [Example 107, N-Cyclohexylmethyl-6-phenylamino-4-trifluoro-methyl-nicotinamide] are under 300 nM and over 50%.
The corresponding values for `CC(C)c1cc(Nc2cccc(C(F)(F)F)c2)ncc1C(=O)NCC1CCOCC1` [Example 19, 4-Isopropyl-N-(tetrahydro-pyran-4-ylmethyl)-6-(3-trifluoromethyl-phenylamino) nicotinamide] are under 300 nM and over 50%.
As for `CC(C)CNC(=O)c1cnc(Nc2ccc(Cl)c(Cl)c2)cc1C(C)C` [Example 270, 6-(3,4-Dichloro-phenylamino)-N-isobutyl-4-isopropyl-nicotinamide], the EC50 is under 300 nM and the maximum response (Emax) was over 50%.
The corresponding values for `CC(C)c1cc(Nc2cc(Cl)cc(Cl)c2)ncc1C(=O)NCC1CCC1` [Example 263, N-Cyclobutylmethyl-6-(3,5-dichloro-phenylamino)-4-isopropyl-nicotinamide] are under 300 nM and over 50%.
The corresponding values for `CC(C)CNC(=O)c1cnc(Nc2cc(Cl)ccc2F)cc1C(C)C` [Example 276, 6-(5-Chloro-2-fluoro-phenylamino)-N-isobutyl-4-isopropyl-nicotinamide] are under 300 nM and over 50%.
The corresponding values for `CC(C)c1cc(Nc2cccc(C(F)(F)F)c2F)ncc1C(=O)NCC1CCC1` [Example 257, N-cyclobutylmethyl-6-(2-fluoro-3-trifluoromethyl-phenylamino)-4-isopropyl-nicotinamide] are under 300 nM and over 50%.
`CC(C)CNC(=O)c1cnc(Nc2ccc(Cl)cc2Cl)cc1C(C)C` [Example 273, 6-(2,4-Dichloro-phenylamtno)-N-isobutyl-4-isopropyl-nicotinamide]: the EC50 was under 300 nM and the Emax was over 50%.
The corresponding values for `CC(C)c1cc(Nc2cccc(C(F)(F)F)c2)ncc1C(=O)NCC1CCCCC1` [Example 14, N-Cyclohexylmethyl-4-isopropyl-6-(3-trifluoromethyl-phenylamino)-nicotinamide] are under 300 nM and over 50%.
The corresponding values for `CC(C)c1cc(Nc2cccc(Cl)c2Cl)ncc1C(=O)NCC1CCC1` [Example 252, N-Cyclobutylmethyl-6-(2,3-dichloro-phenylamino)-4-isopropyl-nicotinamide] are under 300 nM and over 50%.
The corresponding values for `O=C(NCC1CCCCCC1)c1cnc(Nc2cccc(Cl)c2Cl)cc1C(F)(F)F` [Example 137, N-Cycloheptylmethyl-6-(2,3-dichloro-phenylamino)-4-tri-fluoromethyl-nicotinamide] are under 300 nM and over 50%.
For `CC(C)c1cc(Nc2ccc(Cl)c(Cl)c2)ncc1C(=O)NCC1CCOCC1` [Example 18, 6-(3,4-Dichloro-phenylamino)-4-isopropyl-N-(tetrahydro-pyran-4-ylmethyl)-nicotinamide], the EC50 is under 300 nM and the Emax was over 50%.
With `CC(C)c1cc(Nc2cc(C(F)(F)F)ccc2Br)ncc1C(=O)NCC1CCOCC1` [Example 238, 6-(2-Bromo-5-trifluoromethyl-phenytamino)-4-isopropyl-N-(tetrahydro-pyran-4-ylmethyl)-nicotinamide], the EC50 is under 300 nM and the Emax is over 50%.
Take `O=C(NCC1CC1)c1cnc(Nc2cccc(Br)c2)cc1C(F)(F)F` [Example 123, N-Cyclopropylmethyl-6-(3-bromo-phenylamino)-4-tri-fluoromethyl-nicotinamide]: the concentration giving a half-maximal response (EC50) was under 300 nM and the Emax is over 50%.
The corresponding values for `CC(C)c1cc(Nc2ccc(Cl)c(Cl)c2)ncc1C(=O)NCC1CCC1` [Example 251, N-Cyclobutylmethyl-6-(3,4-dichtoro-phenylamino)-4-isopropyl-nicotinamide] are under 300 nM and over 50%.
The corresponding values for `CC(C)c1cc(Nc2ccc(F)c(C(F)(F)F)c2)ncc1C(=O)NCC1CCOCC1` [Example 295, 6-(4-Fluoro-3-trifluoromethyl-phenylamino)-4-isopropyl-N-(tetrahydropyran-4-ylmethyl)-nicotinamide] are under 300 nM and over 50%.
The corresponding values for `O=C(NC1CCC1)c1cnc(Nc2cccc(Cl)c2Cl)cc1C(F)(F)F` [Example 104, 6-(2,3-Dichloro-phenylamino)-N-(cyclobutyl)-4-trifluoromethyl-nicotinamide] are under 300 nM and over 50%.

The values are drawn from patent publication US20060240048A1 (priority 2002, published 2006).
